Laboratory results published in US12503452B2 (Curza Global, LLC, priority 2019, dated 2025).
Where a name gives a salt, the structure may show the parent alone. Read-outs that look alike come from different tables or passages of the source.

Legend:
A. baumannii (Ab) = test: Broth microdilution minimum inhibitory concentration (MIC); format: cell-based; conditions: for MIC: Acinetobacter baumannii, read-out: Ab + bicarb MIC
Summary of the method: (§1)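 Inoculum of 5×10^4 CFU/well, prepared from colonies grown to 0.5 McFarland (A600) at 35±2 °C, is exposed to two-fold serial dilutions in CAMHB-based media (± bicarbonate or human serum). Modified CLSI microdilution, triplicate.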

E. coli (Ec) = test: as above; format: cell-based; conditions: for MIC: Escherichia coli, read-out: E. coli + bicarb MIC
Summary of the method: as §1

E. faecalis (Ef) = test: as above; format: cell-based; conditions: for MIC: Enterococcus faecalis, read-out: Ef + bicarb MIC
Summary of the method: as §1

S. aureus (Sa) = test: as above; format: cell-based; conditions: for MIC: Staphylococcus aureus, read-out: Sa + bicarb MIC
Summary of the method: as §1

P. aeruginosa (Pa) = test: as above; format: cell-based; conditions: for MIC: Pseudomonas aeruginosa, read-out: Pa MIC + bicarb
Summary of the method: as §1

[1] = tested on: E. coli S30 extract (bacterial protein synthesis); test: E. coli S30 extract coupled transcription-translation luciferase assay (inhibition of bacterial protein synthesis); format: biochemical; conditions: read-out: S30 IC50 (μM/% inhib.)
Summary of the method: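 Luminescent read-out of luciferase made from pBESTluc DNA by E. coli S30 extract after 1 h at 37 °C with compound in an 8-point 2-fold series. Background came from no-DNA reactions. Percent inhibition was calculated against water-only controls.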

[2] = target: Rabbit Reticulocyte Lysate (eukaryotic protein synthesis); test: Rabbit reticulocyte lysate luciferase assay (inhibition of eukaryotic protein synthesis); format: biochemical; conditions: read-out: Rabbit reticulocyte IC50 (μM/% inhib.)
Summary of the method: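 Compounds were tested in 8-point 2-fold dilution series for blocking luciferase synthesis in nuclease-treated rabbit reticulocyte lysate (30° C., 90 minutes). Luminescence read-out, corrected by no-RNA background, was expressed as % inhibition against water-only reactions.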

[3] = class by IC50 or % inhibition @ 1 μM
[4] = A. baumannii, growth medium with sodium bicarbonate
[5] = E. coli, growth medium with sodium bicarbonate
[6] = E. faecalis, growth medium with sodium bicarbonate
[7] = S. aureus, growth medium with sodium bicarbonate
[8] = P. aeruginosa, growth medium with sodium bicarbonate

Structure (SMILES) | MIC (A. baumannii (Ab)) [µg/mL] | MIC (E. coli (Ec)) [µg/mL] | MIC (E. faecalis (Ef)) [µg/mL] | MIC (S. aureus (Sa)) [µg/mL] | MIC (P. aeruginosa (Pa)) [µg/mL] | IC50 [1, 3] [µM] | IC50 [2, 3] [µM] | IC50 ([1]; % inhibition @ 1 μM) [µM] | IC50 ([2]; % inhibition @ 1 μM) [µM] | MIC (A. baumannii (Ab); [4]) [µg/mL] | MIC (E. coli (Ec); [5]) [µg/mL] | MIC (E. faecalis (Ef); [6]) [µg/mL] | MIC (S. aureus (Sa); [7]) [µg/mL] | MIC (P. aeruginosa (Pa); [8]) [µg/mL] | Ab + bicarb MIC (A. baumannii (Ab); [4]) | E. coli + bicarb MIC (E. coli (Ec); [5]) | Ef + bicarb MIC (E. faecalis (Ef); [6]) | Sa + bicarb MIC (S. aureus (Sa); [7]) | Pa MIC + bicarb (P. aeruginosa (Pa); [8])
CCN(Cc1ccc(-n2ccc(NC(=O)N3CCN(C(=O)C(C)(C)N)CC3)nc2=O)cc1)[C@H]1CC[C@H](N)[C@@H](OC)C1 [Compound 341, hydrochloride salt] | > 32 | 8 to 32 | > 32 | 8 to 32 | > 32 | 0.5 to 1 | > 1 | – | – | – | – | – | – | – | – | – | – | – | –
CC(C)(N)C(=O)N1CCN(C(=O)Nc2ccn(-c3ccc(CNC4CC(N)CC(O)C4)cc3)c(=O)n2)CC1 (stereo not drawn) [Compound 342, hydrochloride salt] | > 32 | 8 to 32 | > 32 | > 32 | > 32 | < 0.5 | > 1 | – | – | – | – | – | – | – | – | – | – | – | –
CN(Cc1ccc(-n2ccc(NC(=O)N3CCN(C(=O)C(C)(C)N)CC3)nc2=O)cc1)C1CC(N)CC(O)C1 (stereo not drawn) [Compound 343, hydrochloride salt] | > 32 | 8 to 32 | > 32 | > 32 | > 32 | 0.5 to 1 | > 1 | – | – | – | – | – | – | – | – | – | – | – | –
CC(C)(N)C(=O)N1CCN(C(=O)Nc2ccn(-c3ccc(CN4CC[C@H](N)[C@@H](F)C4)cc3)c(=O)n2)CC1 [Compound 344, hydrochloride salt] | > 32 | > 32 | > 32 | > 32 | > 32 | > 1 | > 1 | – | – | – | – | – | – | – | – | – | – | – | –
CC(C)(N)C(=O)N1CCN(C(=O)Nc2ccn(-c3ccc(CCNCC4CNC4)cc3)c(=O)n2)CC1 [Compound 345, hydrochloride salt] | > 32 | > 32 | > 32 | > 32 | > 32 | 0.5 to 1 | > 1 | – | – | – | – | – | – | – | – | – | – | – | –
CC(Cc1ccc(-n2ccc(NC(=O)N3CCN(C(=O)C(C)(C)N)CC3)nc2=O)cc1)N1CC(CCN)C1 (stereo not drawn) [Compound 347, hydrochloride salt] | > 32 | < 8 | > 32 | 8 to 32 | > 32 | 0.5 to 1 | > 1 | – | – | – | – | – | – | – | – | – | – | – | –
CC(C)(N)C(=O)N1CCN(C(=O)Nc2ccn(-c3ccc(CN(C4CC4)[C@H]4CC[C@H](N)CC4)cc3)c(=O)n2)CC1 [Compound 348, hydrochloride salt] | > 32 | < 8 | > 32 | 8 to 32 | > 32 | – | – | < 0.5 | > 1 | – | – | – | – | – | – | – | – | – | –
CC(C)(N)C(=O)N1CCN(C(=O)Nc2ccn(-c3ccc(C4CO[C@@H](CN)CN4)cc3)c(=O)n2)CC1 (stereo partly drawn) [Compound 352, hydrochloride salt] | > 32 | 8 to 32 | > 32 | > 32 | > 32 | – | – | < 0.5 | > 1 | – | – | – | – | – | – | – | – | – | –
CC(C)(N)C(=O)N1CCN(C(=O)Nc2ccn(-c3cc(F)c(CN[C@H]4CC[C@H](N)CC4)c(F)c3)c(=O)n2)CC1 [Compound 353, hydrochloride salt] | > 32 | < 8 | > 32 | 8 to 32 | > 32 | – | – | < 0.5 | > 1 | – | – | – | – | – | – | – | – | – | –
CCN(Cc1ccc(-n2ccc(NC(=O)N3CCN(C(=O)C(C)(C)N)CC3)nc2=O)cc1F)[C@H]1CC[C@H](N)CC1 [Compound 355] | > 32 | < 8 | < 8 | < 8 | > 32 | – | – | < 0.5 | > 1 | – | – | – | – | – | – | – | – | – | –
CC(C)N(Cc1ccc(-n2ccc(NC(=O)N3CCN(C(=O)C(C)(C)N)CC3)nc2=O)cc1)C1CCC(N)CC1 (stereo not drawn) [Compound 356] | – | – | – | – | – | – | – | > 1 | > 1 | > 32 | > 32 | > 32 | > 32 | > 32 | – | – | – | – | –
CCN(Cc1ccc(-n2ccc(NC(=O)N3CCN(C(=O)[C@H](C)N)CC3)nc2=O)cc1)C1CCC(N)CC1 (stereo partly drawn) [Compound 357] | – | – | – | – | – | – | – | < 0.5 | > 1 | > 32 | < 8 | 8 to 32 | < 8 | > 32 | – | – | – | – | –
CCN(Cc1ccc(-n2ccc(NC(=O)N3CCN(C(=O)[C@@H](C)N)CC3)nc2=O)cc1)C1CCC(N)CC1 (stereo partly drawn) [Compound 358] | – | – | – | – | – | – | – | 0.5 to 1 | > 1 | > 32 | < 8 | 8 to 32 | < 8 | > 32 | – | – | – | – | –
CCN(Cc1ccc(-n2ccc(NC(=O)N3CCN(C(=O)[C@@H](C)NC(=O)[C@@H](C)N)CC3)nc2=O)cc1)C1CCC(N)CC1 (stereo partly drawn) [Compound 359] | – | – | – | – | – | – | – | > 1 | > 1 | > 32 | > 32 | > 32 | 8 to 32 | > 32 | – | – | – | – | –
CC(C)(N)C(=O)N1CCN(C(=O)Nc2ccn(-c3ccc(CN4CCCC(N)CC4)cc3)c(=O)n2)CC1 (stereo not drawn) [Compound 365, hydrochloride salt] | > 32 | < 8 | < 8 | < 8 | > 32 | – | – | < 0.5 | > 1 | – | – | – | – | – | – | – | – | – | –
CC(C)(N)C(=O)N1CCN(C(=O)Nc2ccn(-c3ccc(CN4CCC(C5CNC5)CC4)cc3)c(=O)n2)CC1 [Compound 370, hydrochloride salt] | > 32 | < 8 | < 8 | < 8 | > 32 | – | – | < 0.5 | > 1 | – | – | – | – | – | – | – | – | – | –
CC(C)(N)C(=O)N1CCN(C(=O)Nc2ccn(-c3ccc(CCN4CC(C5CCNCC5)C4)cc3)c(=O)n2)CC1 [Compound 372] | – | – | – | – | – | – | – | > 1 | > 1 | > 32 | < 8 | > 32 | < 8 | > 32 | – | – | – | – | –
CC(C)(N)C(=O)N1CCN(C(=O)Nc2ccn(-c3ccc(CC4(N5CCC(N)CC5)CC4)cc3)c(=O)n2)CC1 [Compound 373] | – | – | – | – | – | – | – | > 1 | > 1 | > 32 | < 8 | 8 to 32 | < 8 | > 32 | – | – | – | – | –
CC(C)(N)C(=O)N1CCN(C(=O)Nc2ccn(-c3ccc(CNCC4CNC4)cc3)c(=O)n2)CC1 [Compound 374] | – | – | – | – | – | – | – | < 0.5 | > 1 | – | < 8 | 8 to 32 | 8 to 32 | > 32 | + (An MIC value (μg/mL) that is 32 μg/mL or greater) | – | – | – | –
CC(C)(N)C(=O)N1CCN(C(=O)Nc2ccn(-c3ccc(CN4CC(C5CCNCC5)C4)cc3)c(=O)n2)CC1 [Compound 377] | – | – | – | – | – | – | – | < 0.5 | > 1 | > 32 | < 8 | > 32 | < 8 | > 32 | – | – | – | – | –
CC(Cc1ccc(-n2ccc(NC(=O)N3CCN(C(=O)C(C)(C)N)CC3)nc2=O)cc1)N1CC[C@H](CN)C1 (stereo partly drawn) [Compound 378] | – | – | – | – | – | – | – | < 0.5 | > 1 | – | – | – | – | – | + (An MIC value (μg/mL) that is 32 μg/mL or greater) | +++ (An MIC value (μg/mL) that is less than 8 μg/mL) | ++ (An MIC value (μg/mL) that is 8 μg/mL or greater and less than 32 μg/mL) | +++ (An MIC value (μg/mL) that is less than 8 μg/mL) | + (An MIC value (μg/mL) that is 32 μg/mL or greater)
CC(Cc1ccc(-n2ccc(NC(=O)N3CCN(C(=O)C(C)(C)N)CC3)nc2=O)cc1)N1CCC(C2CNC2)CC1 (stereo not drawn) [Compound 379] | – | – | – | – | – | – | – | > 1 | > 1 | > 32 | < 8 | > 32 | < 8 | > 32 | – | – | – | – | –
CC(C)(N)C(=O)N1CCN(C(=O)Nc2ccn(-c3ccc(CN4CC(N5CC(N)C5)C4)cc3)c(=O)n2)CC1 [Compound 380] | – | – | – | – | – | – | – | < 0.5 | > 1 | > 32 | < 8 | 8 to 32 | < 8 | > 32 | – | – | – | – | –
CC(Cc1ccc(-n2ccc(NC(=O)N3CCN(C(=O)C(C)(C)N)CC3)nc2=O)cc1)N1CC[C@@H](CN)C1 (stereo partly drawn) [Compound 382] | – | – | – | – | – | – | – | < 0.5 | > 1 | > 32 | < 8 | < 8 | < 8 | 8 to 32 | – | – | – | – | –
